Reference: patent publication US10570180B2, “Anti-bacterial agents and their use in therapy” (priority 2015, dated 2020)
Like-named read-outs stand apart in the source and are kept apart here. Ends that are not written are not given here.

How the values were obtained:
[1] = tested on: Staphylococcus aureus MRSA 1040s; assay: microbe, parasite or virus in culture; type: cell-based
Experimental: (§1) ATX-101 was dissolved in Mueller-Hinton broth to 1.25 times of the desired assay concentration. Antibiotics were dissolved in Mueller-Hinton broth and Mueller-Hinton broth with ATX-101 at a concentration of 1.25 times the highest desired assay concentrations. Antibiotics were pharmaceutical grade purchased from Sigma-Aldrich.
(§2) Two-fold serial dilutions of antibiotics were made in Mueller-Hinton with different concentrations of ATX-101, and the solutions were placed in four parallel wells is Nunc 384-well micro plates (30 μl per well in Nunc 242757 microplates). A group of 8 wells with no addition of antibiotics for each ATX-101 concentration was included on each micro plate as a growth reference.
(§3) At the day of analysis, overnight TSB cultures inoculated from freeze stocks (6 ml in 50 ml tube tilted to 45-degrees angle, 200 rpm, 2.5 cm amplitude, 37° C.) were diluted in TSB until the OD800 was 0.10, and further diluted 1:40 in Mueller-Hinton broth. Each well in the 384-well assay plates was inoculated with 7.5 μl of the diluted culture, giving the same dilution of the culture in the assay cultures. The microplates were placed in plastic bags and incubated without shaking at 37° C. The optical density at 600 nm in the microwells was measured after approximately 19 hours of incubation, and the relative growth yield was calculated based on the growth in the reference groups. The MIC value was set to the highest concentration giving less than 30% growth in all 4 parallel wells within the sample groups. The microplates were further incubated for 6 hours, and optical density in the cultures was measured once more for confirmation of the estimated MIC-values.
as §1, with “The APIM peptide was” for “ATX-101 was”, “with APIM” for “with ATX-101”
as §2, with “APIM,” for “ATX-101,”, “in” for “is”, “APIM” for “ATX-101”, “as” for “as a”
as §3, with “inoculated” for “inoculated from”, “OD600” for “OD800”, “culture.” for “culture, giving the same dilution of the culture in the assay cultures.”, “yield in each well” for “yield”
In view of the anti-bacterial effect of ATX-101 on strains of MRSA, the MIC for a variety of APIM variants was determined using Staphylococcus aureus MRSA 1040s. […] A cell penetrating peptide (SEQ ID NO: 337) present in all of the APIM peptides, was used as a negative control.
Next, the effect of APIM peptides on the MIC of antibiotics was determined using Staphylococcus aureus MRSA 1040s.
(§4) The MICS for various APIM peptides were determined for various bacteria, as described above.

E. faecium TO-12 = type: cell-based
Experimental: as §1, §2, §3, §4

P. aeruginosa = type: cell-based
Experimental: as §1, §2, §3, §4

[2] = tested on: Staphylococcus aureus NCTC 6571; type: cell-based
Experimental: as §1, §2, §3, §4

E. coli NCIMB 12210 = assay: MIC assay of antibiotics with ATX-101; type: cell-based, Escherichia coli; conditions: FIG. 4
Experimental: (§5) The minimum inhibitory concentration (MIC) of ATX-101 (SEQ ID NO: 1289) was determined for various gram negative and gram positive bacteria. The bacteria, Pseudomonas aeruginosa ATCC 15692, Acinetobacter baumenni ATCC 19600, Escherichia coli ATCC 25922, Pseudomonas aeruginosa TO-5A (clinical isolate), Enterococous faecium CCUG 37832, Enterococcus faecium CTC 492, Micrococcus luteus ATCC 9341 and Escherichie coli NCIMB 12210 were grown in the presence of various concentrations of ATX-101 and/or antibiotic.
as §1, §2, §3
as §1, with “The APIM peptide was” for “ATX-101 was”, “with APIM” for “with ATX-101”
as §2, with “APIM,” for “ATX-101,”, “in” for “is”, “APIM” for “ATX-101”, “as” for “as a”
as §3, with “inoculated” for “inoculated from”, “OD600” for “OD800”, “culture.” for “culture, giving the same dilution of the culture in the assay cultures.”, “yield in each well” for “yield”

E. faecium CTC 492 = assay: MIC assay of antibiotics with ATX-101; type: cell-based, Enterococcus faecium
Experimental: as §5, §1, §2, §3
as §1, with “The APIM peptide was” for “ATX-101 was”, “with APIM” for “with ATX-101”
as §2, with “APIM,” for “ATX-101,”, “in” for “is”, “APIM” for “ATX-101”, “as” for “as a”
as §3, with “inoculated” for “inoculated from”, “OD600” for “OD800”, “culture.” for “culture, giving the same dilution of the culture in the assay cultures.”, “yield in each well” for “yield”

[3] = tested on: gram negative bacteria (Pseudomonas aeruginosa ATCC 15692, Acinetobacter baumenni ATCC 19606, Escherichia coli ATCC 25922, Pseudomonas aeruginosa TO-5A); type: cell-based
Experimental: as §5, §1, §2, §3

[4] = tested on: gram positive bacteria (Enterococcus faecium CCUG 37832, Enterococcus faecium CTC 492, Micrococcus luteus ATCC 9341); type: cell-based
Experimental: as §5, §1, §2, §3

MRSA 1040 (u50) biofilm = assay: MRSA biofilm under flow (IBIDI flow-system); type: cell-based, Staphylococcus aureus
Experimental: The IBIDI flow-system coupled with EVOS Auto Imaging system was optimized and used for testing the effect of ATX-101 on MRSA biofilm under flow. MRSA 1040 (u50) was used as model organism; it normally produces a dense biofilm in the growth channel during 36 hours of flow. The effect of 3 different concentrations of ATX-101 was tested (7 μg/ml, 3.5 μg/ml and 0.8 μg/ml). The flow system was programmed with share stress similar to those found in capillary networks (3.49 dyne/cm^2), 2% Luria Bertani (LB) was used for dilution and flow medium.

[5] = tested on: E. faecium CCUG 37832 (TO-3); type: cell-based, Enterococcus faecium
Experimental: as §1, §2, §3
Accordingly, concentrations of 8 μg/ml and 16 μg/ml of ATX-101 were combined with various antibiotics selected from; 2,4-Diamin, S. methizol, S. methoxa, S. dimetho, Surfaceta, Trimeth, Flumeq, Levoflox, Pruliflox, Metronid and Nitrofur.
as §4

[6] = tested on: Staphylococcus aureus MRSA 1096; type: cell-based
Experimental: as §1, §2
At the day of analysis, overnight TSB cultures inoculated from freeze stocks (6 ml in 50 ml tube tilted to 45-degrees angle, 200 rpm, 2.5 cm amplitude, 37° C.) were diluted in TSB until the OD800 was 0.10, and further diluted 1:40 in Mueller-Hinton broth. […] The optical density at 600 nm in the microwells was measured after approximately 19 hours of incubation, and the relative growth yield was calculated based on the growth in the reference groups. […] The microplates were further incubated for 6 hours, and optical density in the cultures was measured once more for confirmation of the estimated MIC-values.

[7] = starting concentration of ATX-101 150 μg/ml

## MDRWLVKWKKKRKIRRRRRRRRRRR [ATX-101]
[1]; 1040s
  MIC: 7.5 µM
[1]; Table 4, MRSA 1040s
  MIC of ATX-101: 37.5 µg/mL
[1]; Table 5, peptide alone, MRSA 1040s
  MIC: 32 µg/mL
[1]; Table 6, alone, MRSA 1040s
  MIC: 16 µg/mL
[1]; concentration of APIM peptide 7.5 μg/ml, MRSA 1040s
  MIC of Erythromycin (Relative values): 1000
[1]; concentration of APIM peptide 15 μg/ml, MRSA 1040s
  MIC of Erythromycin (Relative values): 125
[1]; [7]
  Factor of inhibition: 0.25
E. faecium TO-12
  MIC: 16.8 µM
P. aeruginosa
  MIC: 37.9 µM
[2]; NCTC 6571
  MIC: 37.9 µM
[2]; Staphylococcus aureus NCTC 6571
  MIC of ATX-101: 150 µg/mL
[2]; [7]
  Factor of inhibition: 1
E. coli NCIMB 12210
  reduction of the MIC for novobiocin: 16 fold
E. faecium CTC 492; 6.5 μg/ml or 13 μg/ml ATX-101, about 0.5-2 μg/ml novobiocin
  effect on inhibition of bacterial growth by novobiocin: enhances the inhibition of bacterial growth
E. faecium CTC 492; 20 μg/ml ATX-101, with or without ampicillin or novobiocin
  growth at higher concentration of ATX-101: no growth was observed
[3]
  MIC: 5 to 10 µg/mL
[3]; FIG. 1, gram negative bacteria
  growth inhibited by ATX-101 from (concentration): about 1 μM
[4]
  MIC: about 1 μg/ml
[4]; FIG. 2, gram positive bacteria
  growth inhibited by ATX-101 from (concentration): about 1 μM
MRSA 1040 (u50) biofilm; 0.8 μg/ml ATX-101, 36 hours, FIG. 15
  biofilm formation: biofilm formation is inhibited
MRSA 1040 (u50) biofilm; 7 μg/ml ATX-101, 36 hours, FIG. 14
  biofilm formation: biofilm formation is inhibited
MRSA 1040 (u50) biofilm; 7 μg/ml, 3.5 μg/ml and 0.8 μg/ml
  effect on MRSA biofilm under flow: Good effect
[5]; ATX-101 alone, text b504
  MIC: 7.5 µg/mL
[5]; Table 9, E. faecium TO-3
  MIC: 7.5 µM
[6]; MRSA 1096
  MIC of ATX-101: 9.375 µg/mL
[6]; [7]
  Factor of inhibition: 0.0625
